Assay results taken from publication PMC8306930, “A Comparative Analysis of the In Vitro Anticancer Activity of Iridium(III) {η^5-C5Me4R} Complexes with Variable R Groups” (International Journal of Molecular Sciences, 2021).

What was measured:
C6 rat glioma cells [1] = experiment: MTT viability assay, C6; type: cell-based; settings: C6, 72 h exposure, mean ± SD
From the text: (§1) The rat astrocytoma C6 cell line and murine melanoma B16 cell line were kindly gifted by Dr. L. Harhaji–Trajkovic, Institute for Biological Research “Sinisa Stankovic”—National Institute of Republic of Serbia (IBISS), and from Dr. Sinisa Radulovic (Institute for Oncology and Radiology of Serbia), respectively. Human colorectal (SW620 and HCT116), breast (MCF-7), and ovarian (A2780) cancer cell lines and non-malignant fibroblast cell line (MRC5) were purchased from the American Type Culture Collection (ATCC, Manassas, Virginia, USA). […] For viability assays, cells were seeded in listed densities/well: B16 and C6: 3 × 10^3; SW620: 9 × 10^3; A2780 and HCT116: 5 × 10^3; MCF-7: 8 × 10^3 and MRC5: 7 × 10^3. For flow cytometry, A2780 cells were seeded at 2 × 10^5 density/well in 6-well plates. Peritoneal macrophages were collected from the peritoneal cavity of C57BL/6 mice from the animal facility of IBISS by cavity lavage with ice-cold PBS. […] Macrophages were counted, seeded at 2 × 10^5 cells/well in 96-well plates for viability assay, and then left for 2 h to adhere. Before treatment, non-adherent cells were removed. The handling of animals and protocol for obtaining macrophages is in the agreement with the rules of the European Union and approved by the Institutional Animal Care and Use Committee at IBISS (No. 02-09/16).
(§2) Stock solutions of 1b, 1c, 1d, and 1e were prepared in ethanol at concentration of 20 mM and kept at −20 °C, while 10 mM stock solution of cisplatin was prepared in DMF just before the usage. Desired final concentrations were obtained by dilution in culture medium.
(§3) Cells were treated with various concentrations (up to 50 or 100 µM) of the above-mentioned complexes for 72 h. For the detection of mitochondrial respiration, cells were cultivated in the presence of MTT staining solution (0.5 mg/mL) for approximately 1 h at 37 °C. The dye was then discarded, and the formed formazan crystals (purple) were dissolved in DMSO. For an evaluation of viable attached cells, cells were fixed with 4% PFA for 10 min at room temperature, and subsequently stained for 15 min with 0.02% CV solution. […] The absorbance was measured with an automated microplate reader at 540 nm, with a reference wavelength of 670 nm. The IC50 values were calculated using a four-parameter logistic function and presented as mean ± SD from three independent experiments.

[2] = tested on: A2780 human ovarian cancer cells; experiment: CV viability assay, A2780; type: cell-based; settings: A2780, 72 h exposure, mean ± SD
From the text: as §1, §2, §3

[3] = tested on: SW620 human colorectal adenocarcinoma cells; experiment: MTT viability assay, SW620; type: cell-based; settings: SW620, 72 h exposure, mean ± SD
From the text: as §1, §2, §3

B16 mouse melanoma cells [4] = experiment: MTT viability assay, B16; type: cell-based; settings: B16, 72 h exposure, mean ± SD
From the text: as §1, §2, §3

[5] = tested on: A2780 human ovarian cancer cells; experiment: MTT viability assay, A2780; type: cell-based; settings: A2780, 72 h exposure, mean ± SD
From the text: as §1, §2, §3

B16 mouse melanoma cells [6] = experiment: CV (crystal violet) viability assay, B16; type: cell-based; settings: B16, 72 h exposure, mean ± SD
From the text: as §1, §2, §3

[7] = tested on: MCF-7 human breast cancer cells; experiment: MTT viability assay, MCF-7; type: cell-based; settings: MCF-7, 72 h exposure, mean ± SD
From the text: as §1, §2, §3

[8] = tested on: MCF-7 human breast cancer cells; experiment: CV viability assay, MCF-7; type: cell-based; settings: MCF-7, 72 h exposure, mean ± SD
From the text: as §1, §2, §3

[9] = tested on: MRC5 human fibroblast cells; experiment: CV viability assay, MRC5; type: cell-based; settings: MRC5, 72 h exposure, mean ± SD
From the text: as §1, §2, §3

[10] = tested on: MRC5 human fibroblast cells; experiment: MTT viability assay, MRC5; type: cell-based; settings: MRC5, 72 h exposure, mean ± SD
From the text: as §1, §2, §3

[11] = tested on: HCT116 human colorectal carcinoma cells; experiment: CV viability assay, HCT116; type: cell-based; settings: HCT116, 72 h exposure, mean ± SD
From the text: as §1, §2, §3

[12] = tested on: SW620 human colorectal adenocarcinoma cells; experiment: CV viability assay, SW620; type: cell-based; settings: SW620, 72 h exposure, mean ± SD
From the text: as §1, §2, §3

[13] = tested on: HCT116 human colorectal carcinoma cells; experiment: MTT viability assay, HCT116; type: cell-based; settings: HCT116, 72 h exposure, mean ± SD
From the text: as §1, §2, §3

C6 rat glioma cells [14] = experiment: CV viability assay, C6; type: cell-based; settings: C6, 72 h exposure, mean ± SD
From the text: as §1, §2, §3

[15] = tested on: panel of six human and rodent cancer cell lines and MRC5; experiment: Cytotoxic activity over the whole cell line panel (MTT and CV); type: cell-based; settings: 72 h; for Cytotoxic activity in words: all investigated cell lines
Description: Cells were treated with various concentrations (up to 50 or 100 µM) of the above-mentioned complexes for 72 h. For the detection of mitochondrial respiration, cells were cultivated in the presence of MTT staining solution (0.5 mg/mL) for approximately 1 h at 37 °C. The dye was then discarded, and the formed formazan crystals (purple) were dissolved in DMSO. For an evaluation of viable attached cells, cells were fixed with 4% PFA for 10 min at room temperature, and subsequently stained for 15 min with 0.02% CV solution. Cells were then washed with tap water, dried in air, and the CV dye was dissolved in 33% acetic acid. The absorbance was measured with an automated microplate reader at 540 nm, with a reference wavelength of 670 nm. The IC50 values were calculated using a four-parameter logistic function and presented as mean ± SD from three independent experiments.

[16] = Stability in D2O mixtures by 1H NMR; type: physicochemical; settings: for Variation of 1H NMR spectra on storage: acetone-d6/D2O 2:1 (1b,d) or methanol-d4/D2O 2:1 (1c), 72 h at 37 °C, progressive precipitation
Description: Complexes were dissolved in acetone-d6/D2O 2:1 (1b,d), DMSO-d6/D2O 2:1 (2a–d and 3), or methanol-d4/D2O 2:1 (1c) ([Ir] ≈ 10^−3 mol L^−1), then dimethyl sulfone (0.05 mL, 0.164 mmol) was added as internal standard. The mixtures were filtered through a celite pad, and the filtrated solutions were analyzed by ^1H NMR spectroscopy.
The solutions were then stored for 72 h at 37 °C, and new NMR analyses were subsequently performed.

A2780 cells [17] = experiment: Senescence, FDG assay of beta galactosidase activity, flow cytometry; type: cell-based, human; settings: A2780, IC50 doses, 48 h, in comparison to the control
Description: (§4) Experiments were carried out in three independent replicates.

[18] = tested on: primary mouse peritoneal cells; experiment: Viability of primary mouse peritoneal cells (macrophages); type: cell-based
From the text: The rat astrocytoma C6 cell line and murine melanoma B16 cell line were kindly gifted by Dr. L. Harhaji–Trajkovic, Institute for Biological Research “Sinisa Stankovic”—National Institute of Republic of Serbia (IBISS), and from Dr. Sinisa Radulovic (Institute for Oncology and Radiology of Serbia), respectively. Human colorectal (SW620 and HCT116), breast (MCF-7), and ovarian (A2780) cancer cell lines and non-malignant fibroblast cell line (MRC5) were purchased from the American Type Culture Collection (ATCC, Manassas, Virginia, USA). […] For viability assays, cells were seeded in listed densities/well: B16 and C6: 3 × 10^3; SW620: 9 × 10^3; A2780 and HCT116: 5 × 10^3; MCF-7: 8 × 10^3 and MRC5: 7 × 10^3. For flow cytometry, A2780 cells were seeded at 2 × 10^5 density/well in 6-well plates. […] Macrophages were counted, seeded at 2 × 10^5 cells/well in 96-well plates for viability assay, and then left for 2 h to adhere. […]
Cells were treated with various concentrations (up to 50 or 100 µM) of the above-mentioned complexes for 72 h. […] The absorbance was measured with an automated microplate reader at 540 nm, with a reference wavelength of 670 nm. The IC50 values were calculated using a four-parameter logistic function and presented as mean ± SD from three independent experiments.

A2780 cells [19] = settings: A2780, IC50 doses, 48 h, AnnV/PI
Description: as §4

A2780 cells [20] = experiment: Autophagosomes, acridine orange flow cytometry; type: cell-based, human; settings: A2780, IC50 doses, 48 h, AO
Description: as §4

A2780 cells [21] = experiment: Cell proliferation, CFSE flow cytometry; type: cell-based, human; settings: A2780, IC50 doses, 72 h of incubation
Description: as §4

A2780 cells [22] = experiment: ROS/RNS, DHR123 flow cytometry; type: cell-based, human; settings: A2780, IC50 doses, 48 h, DHR123, with respect to untreated cultures
Description: as §4

A2780 cells [23] = experiment: Mitochondrial membrane potential, DiOC6(3) flow cytometry; type: cell-based, human; settings: A2780, IC50 doses, 24 h, in comparison with untreated cells
Description: as §4

A2780 cells [24] = experiment: Intracellular nitric oxide, DAF-FM flow cytometry; type: cell-based, human; settings: A2780, IC50 doses, 48 h, with respect to untreated cultures
Description: as §4

| Molecule | IC50 (C6 rat glioma cells [1]) [µM] | IC50 [2] [µM] | IC50 [3] [µM] | IC50 (B16 mouse melanoma cells [4]) [µM] | IC50 [5] [µM] | IC50 (B16 mouse melanoma cells [6]) [µM] | IC50 [7] [µM] | IC50 [8] [µM] | IC50 [9] [µM] | IC50 [10] [µM] | IC50 [11] [µM] | IC50 [12] [µM] | IC50 [13] [µM] | IC50 (C6 rat glioma cells [14]) [µM] | Cytotoxic activity in words [15] | Variation of 1H NMR spectra on storage [16] | other results |
| --- | --- | --- | --- | --- | --- | --- | --- | --- | --- | --- | --- | --- | --- | --- | --- | --- | --- |
| N.N.[Cl][Pt][Cl] [Cisplatin, cisplatin, reference compound] | 0.6 ± 0.2 | 3.8 ± 0.5 | 11.6 ± 0.1 | 5.6 ± 0.2 | 1.9 ± 0.2 | 11.6 ± 0.3 | 0.8 ± 0.2 | 1.2 ± 0.3 | 0.8 ± 0.1 | 0.6 ± 0.2 | 8 ± 0.7 | 11 ± 3 | 1.5 ± 0.1 | 1.2 ± 0.1 | – | – | – |
| CC1=C(C)[C](c2ccc(O)cc2)([Ir]([Cl])[Cl])C(C)=C1C.CC1=C(C)[C](c2ccc(O)cc2)([Ir]([Cl])[Cl])C(C)=C1C [Complex 1e] | 90 ± 14 | – | > 100 | > 100 | – | > 100 | 88 ± 12 | 94 ± 8 | > 100 | > 100 | 79 ± 8 | > 100 | 80 ± 3 | > 100 | substantially inactive | – | IC50 ([15]; cell lines on which 1e is active, read-out: IC50 values, range over sensitive cell lines): 80 to 90 µM; Behaviour in aqueous media in the presence of DMSO ([16]; aqueous media with DMSO): rapid conversion into 3 |
| Cc1[cH-]c(C)c(C)c1C.Cc1[cH-]c(C)c(C)c1C.[Cl-].[Cl-].[Cl-].[Cl-].[Ir+3].[Ir+3] [Complex 1b] | > 50 | > 50 | > 50 | > 50 | > 50 | > 50 | > 50 | > 50 | > 50 | > 50 | > 50 | > 50 | > 50 | > 50 | substantially inactive | no significant variations | – |
| CS(C)=O.Cc1c(C)c(C)[c-](-c2ccc(O)cc2)c1C.[Cl][Ir+][Cl] [Complex 3, (4-(2,3,4,5-tetramethylcyclopenta-1,4-dien-1-yl)phenol)dimethylsulfoxide iridium(III)dichloride] | > 100 | – | > 100 | > 100 | – | > 100 | > 100 | > 100 | > 100 | > 100 | > 100 | > 100 | > 100 | > 100 | inactive | – | Fraction of unaltered compound ([16]; DMSO-d6/D2O 2:1, 72 h at 37 °C, 1H NMR, dimethyl sulfone standard): 98% |
| CC1=C(C)[C](c2ccc(F)cc2)([Ir]([Cl])[Cl])C(C)=C1C.CC1=C(C)[C](c2ccc(F)cc2)([Ir]([Cl])[Cl])C(C)=C1C [Complex 1d] | 34 ± 2 | 20.2 ± 0.3 | 8 ± 2 | 20.4 ± 0.1 | 16 ± 0.3 | 28.1 ± 0.1 | 9.2 ± 0.5 | 30 ± 0.4 | 22.2 ± 0.1 | 19.1 ± 0.2 | 14.5 ± 1.5 | 18.5 ± 0.4 | 8.1 ± 0.7 | 49 ± 1 | moderate cytotoxicity | no significant variations | – |
| CCC[c-]1c(C)c(C)c(C)c1C.CCC[c-]1c(C)c(C)c(C)c1C.[Cl-].[Cl-].[Cl-].[Cl-].[Ir+3].[Ir+3] [Complex 1c] | 27 ± 3 | 39 ± 7 | 27 ± 2 | 28 ± 4 | 13 ± 1 | 44 ± 8 | 28 ± 5 | 55 ± 8 | > 50 | 36 ± 2 | 38 ± 3 | 45 ± 8 | 30 ± 4 | 54 ± 5 | moderate cytotoxicity | no significant variations | – |
| tetramethylcyclopentadienyl)(2-phenylpyridine)iridium(III)chloride [Complex 2b] | 2.4 ± 0.3 | 4.4 ± 0.6 | 2.6 ± 0.1 | 2.5 ± 0.2 | 5.5 ± 0.5 | 3 ± 0.1 | 8.6 ± 0.2 | 37 ± 3 | 6 ± 2 | 6.7 ± 0.2 | 7 ± 2 | 2.9 ± 0.5 | 8 ± 0.2 | 2.6 ± 0.1 | – | – | Increase of beta galactosidase activity (A2780 cells [17]): 38.4%; Effect on viability of primary mouse peritoneal cells [18]: did not affect viability; Induction of apoptotic cell death (A2780 cells [19]): modest induction; High percentage of autophagosomes (A2780 cells [20]): not recognized; Effect on cell proliferation (A2780 cells [21]): inhibition of cell proliferation; Increase of intracellular levels of H2O2, HOCl and ONOO− (in total) (A2780 cells [22]): 46.4%; Mitochondrial membrane hyperpolarization (A2780 cells [23]): 32.3%; Increase of intracellular level of NO (A2780 cells [24]): 40.9% |
